These results are taken from patent US9994758B2, “Microbial metabolism of chlorine oxyanions as a control of biogenic hydrogen sulfide production” (The Regents of the University of California, priority 2011, dated 2018).

Experiment [1] has as its system marine sediment slurry microcosms. The experiment can be described thus: Sulfide inhibition in marine sediment slurry microcosms. In kind it is cell-based. Particulars: addition of chlorate and Dechloromarinus strain NSS, extended incubation for over 250 hours. The source says: In the absence of chlorate and Dechloromarinus strain NSS sulfide is readily produced.

The next experiment has as its system Desulfovibrio vulgaris. The experiment can be described thus: Inhibition of sulfidogenesis by sulfate-reducing bacteria (D. vulgaris culture, lactate/sulfate medium). In kind it is cell-based. Here is the method: Twelve tubes of basal anaerobic medium containing 15 mM lactate and 15 mM sulfate were inoculated with an active culture of D. vulgaris and incubated for 6 hours at 30° C., until a visible increase in optical density was observed. After six hours, the tubes were further inoculated with A. suillum and 15 mM chlorate prior to incubation overnight at 30° C., as outlined in Table 2.

SMILES strings stand for the structures.

With `[O-][Cl+2]([O-])O` [chlorate], the “sulfide production in marine sediment slurry microcosms (FIG. 4)” value in experiment [1] was “sulfide inhibition”. In the experiment with Desulfovibrio vulgaris (15 mM chlorate alone, 24 hours, 30° C., 15 mM lactate and 15 mM sulfate), the “sulfide production by D. vulgaris relative to control cells incubated without chlorate” value was found to be 49%. In addition, in the experiment on Desulfovibrio vulgaris (15 mM chlorate together with A. suillum, 24-hour incubation, 30° C., 15 mM lactate and 15 mM sulfate), the “sulfide production by D. vulgaris relative to control cells incubated in the absence of A. suillum and chlorate” value was 17%. The “antimicrobial activity against D. vulgaris” value with Desulfovibrio vulgaris (chlorate at relatively low concentrations (15 mM)) is recorded as “has antimicrobial activity against D. vulgaris”. The “time course of sulfidogenesis by D. vulgaris (FIG. 6)” value in the experiment on Desulfovibrio vulgaris (treated with A. suillum (PS) and chlorate at 48 hours, relative to untreated control) is “immediate inhibition of sulfide production and removal of sulfide from the medium”.
